Laboratory results taken from patent EP0314302A2, “Herbicidal o-carbomethoxy-sulfonylureas” (E.I. DU PONT DE NEMOURS AND COMPANY, priority 1987, dated 1989).

Tests used:
Buckhorn plantain = test: Test 7 postemergence; format: in vivo, Plantago lanceolata; settings: scale 0-100
Method: (§1) Individual 11.4-cm plastic pots filled with planting medium were seeded with rape, wild radish (Raphanus raphanistruna). tansy mustard (Descurainia pinnata), ball mustard (Neslia paniculata), black mustard (Brassica nigra), yellow mustard, brown mustard, lentils, safflower, flax, sunflower, peanut, vetch, alfalfa, field bean, pea, violet (Viola spp), Kochia (Kochia spp), Russian thistle (Salsola spp), Matricaria spp, groundsel (Senecio spp), shepherdspurse (Capsella bursa-pastoris), nightshade (Solanum spp), sowthistle (Sonchus spp), sugar beet, wheat, "Bonanza" barley and "Morex" barley, Kentucky bluegrass (Poa pratensis), red clover (Trifolium pratense), dandelion (Taraxacum spp) and buckhorn plantain (Plantago lanceolata).
(§2) Plants were treated postemergence with the compound formulated with a non-phytotoxic carrier. Plants were visually rated 18 days after treatment (DAT). Response ratings were based on the scale of 0 to 100 where 0 = no effect, 20 = minimal injury and 100 = complete control.

Yellow nutsedge = test: Test 11 windowsill flats, postemergence; format: in vivo, Cyperus esculentus; settings: Postemergence 32 g/ha, 0.25% X-77 surfactant, scale 0-100
Method: (§3) Budded citrus seedlings were planted in 30-liter plastic pots which were also seeded with sandbur, guineagrass, narrowleaf panicum, common ragweed, yellow nutsedge, purple nutsedge and bindweed. Compound I was applied preemergence and postemergence to the weeds. Treatments were sprayed to simulate the trunk-to-trunk herbicide application method used in some citrus groves. The compound was also applied postemergence to weeds grown in windowsill flats. The flats were filled with planting medium and seeded with morningglory (Ipomoea spp.). purple nutsedge (Cyperus rotundus), pigweed (Amaranthus spp.), bindweed (Convolvulus spp.), narrowleaf panicum (Panicum maximum), common ragweed (Ambrosia artemisiifolia), sandbur (Cenchrus echinatus), itchgrass (Rottboellia exaltata), johnsongrass (Sorghum halepense), guineagrass (Panicum maximum), smooth crabgrass (Digitaria ischaemum), broadleaf signalgrass (Brachiaria platyphylla), bermudagrass (Cynodon dactylon), goosegrass (Eleusine indica), large crabgrass (Digitaria sanguinalis) and yellow nutsedge (Cyperus esculentus).
(§4) The compound was formulated and sprayed with 0.25% X-77 surfactant in water. Plants were visually rated 21 and 29 days after treatment and compared with appropriate controls. Injury ratings were based on the scale of 0 to 100, where 0 indicates no effect, 20 indicates minimum effect and 100 indicates complete control. […]

Guinea Grass [1] = test: Test 5 sugarcane injury and weed control, postemergence; format: in vivo, P. maximum; settings: scale 0-100
Method: (§5) Sugarcane (Saccharum spp.) cuttings which had been pre-sprouted were planted in 15-cm plastic pots. Narrowleaf panicum (Panicum maximum), large crabgrass (Digitaria sanguinalis), guineagrass (P. maximum) and itchgrass (Rottboellia exaltata) were seeded in individual 15-cm plastic pots.
(§6) The pots were treated postemergence when the plants had 3 to 4 leaves with 2 to 3 tillers with Compound I formulated in a non-phytotoxic carrier made up of acetone-humectant-water-surfactant (22:1:1:0.05 v/v). The degree of crop injury and weed control was visually rated 27 days after treatment (DAT). Plant injury ratings are based on the scale of 0 to 100 where 0 = no effect, 20 = minimal injury and 100 = complete control.

Purple nutsedge = test: Test 11 citrus pots, preemergence to the weeds; format: in vivo, Cyperus rotundus; settings: Preemergence 32 g/ha; 0.25% X-77 surfactant; scale 0-100
Method: as §3, §4

Bermudagrass = test: Test 11 windowsill flats, postemergence; format: in vivo, Cynodon dactylon; settings: Postemergence 32 g/ha, 0.25% X-77 surfactant, scale 0-100
Method: as §3, §4

Loblolly pine = test: Test 13 conifer seedlings, postemergence; format: in vivo; settings: scale 0-100
Source text: Conifer species (Loblolly pine) seedlings were transplanted into 15-cm plastic pots filled with planting medium. Compound I was applied postemergence to the loblolly pine seedlings. The compound was formulated in a non-phytotoxic spray solvent. Plans were visually rated 240 days after treatment (DAT) and compared with appropriate controls. Injury ratings are based on the scale of 0 to 100, where 0 indicates no effect, 20 indicates minimal injury and 100 indicates complete kill.

Dandelion = test: Test 7 postemergence; format: in vivo, Taraxacum spp; settings: scale 0-100
Method: as §1, §2

Morex barley = test: Test 10 postemergence safety to crops and weed control; format: in vivo; settings: 16 g/ha, scale 0-100
Method: (§7) The object of these tests was to evaluate the compound of this invention for postemergence safety to crops and weed control. Seedling and budded Macedine grapes were grown in 11.4-cm pots. Flax, green foxtail (Setaria viridis), "Morex" barley, wild oats (Avena fatua), "Era" wheat, annual ryegrass (Lolium multiflorum), wild radish (Raphanus raphanistrum), rape, sunflower, chickweed (Stellaria media) and wild buckwheat (Polygonum convolvulus) were seeded in windowsill pots.
(§8) The plants were sprayed postemergence with Compound I in a non-phytotoxic solvent. Plants were visually rated 15 and 27 days after treatment (DAT). Injury and weed control ratings were based on the scale of 0 to 100 where 0 = no effect, 20 minimal control and 100 = complete control.

Flax = test: as above; format: in vivo; settings: 16 g/ha, scale 0-100
Method: as §7, §8

Sunflower = test: as above; format: in vivo; settings: 16 g/ha, scale 0-100
Method: as §7, §8

Rape [2] = test: as above; format: in vivo; settings: 16 g/ha, scale 0-100
Method: as §7, §8

Era wheat = test: as above; format: in vivo; settings: 16 g/ha, scale 0-100
Method: as §7, §8

Pigweed = test: Test 9 postemergence; format: in vivo, Amaranthus spp; settings: 16 g/ha, scale 0-100
Method: (§9) Plastic windowsill pots containing planting medium were seeded with bahiagrass, bindweed (Convolvulus spp), guinea grass (Panicum maximum), large crabgrass (Digitaria sanguinalis) and pigweed (Amaranthus spp). Individual 15-cm plastic pots contained sandbur (Cenchrus echinatus), Mikania cordata, Boston fern (Nephrolepis exalata), quackgrass (Agropyron repens), elephantgrass (Pennisetum purpureum) and sowthistle (Sonchus spp) plants.
(§10) Plants were treated postemergence with Compound I formulated in a non-phytotoxic solvent. Plants were visually rated 22 days after treatment (DAT). Injury and weed control ratings were based on the scale of 0 to 100 where 0 = no effect, 20 = minimal control and 100 = complete control.

Rape [3] = test: Test 7 postemergence; format: in vivo; settings: scale 0-100
Method: as §1, §2

Guinea Grass [4] = test: Test 9 postemergence; format: in vivo, Panicum maximum; settings: 16 g/ha, scale 0-100
Method: as §9, §10

Broadleaf signalgrass = test: Test 11 windowsill flats, postemergence; format: in vivo, Brachiaria platyphylla; settings: Postemergence 32 g/ha, 0.25% X-77 surfactant, scale 0-100
Method: as §3, §4

Annual ryegrass = test: Test 10 postemergence safety to crops and weed control; format: in vivo, Lolium multiflorum; settings: 16 g/ha, scale 0-100
Method: as §7, §8

Sugarcane = test: Test 5 sugarcane injury and weed control, postemergence; format: in vivo, Saccharum spp.; settings: scale 0-100
Method: as §5, §6

Structure (SMILES): COC(=O)c1cccnc1S(=O)(=O)NC(=O)Nc1nc(OC)cc(OC)n1 [Compound I, 2-[[(4,6-dimethoxypyrimidin-2-yl)aminocarbonyl]aminosulfonyl]-3-pyridinecarboxylic acid, methyl ester]
- Plant Injury Rating 18 DAT (Buckhorn plantain; 16 g/ha): 30
- Plant Injury Rating 18 DAT (Buckhorn plantain; 32 g/ha): 50
- Injury ratings (Yellow nutsedge): 80
- Plant Injury Rating 27 DAT (Guinea Grass [1]; 8 g/ha): 30
- Plant Injury Rating 27 DAT (Guinea Grass [1]; 16 g/ha): 70
- Plant Injury Rating 27 DAT (Guinea Grass [1]; 32 g/ha): 80
- Plant Injury Rating 27 DAT (Guinea Grass [1]; 64 g/ha): 100
- Injury ratings (Purple nutsedge): 100
- Injury ratings (Bermudagrass): 20
- Plant Injury Rating 240 DAT (Loblolly pine; 8 g/ha): 0
- Plant Injury Rating 240 DAT (Loblolly pine; 16 g/ha): 0
- Plant Injury Rating 240 DAT (Loblolly pine; 32 g/ha): 0
- Plant Injury Rating 240 DAT (Loblolly pine; 64 g/ha): 0
- Plant Injury Rating 240 DAT (Loblolly pine; 125 g/ha): 0
- Plant Injury Rating 18 DAT (Dandelion; 16 g/ha): 100
- Plant Injury Rating 18 DAT (Dandelion; 32 g/ha): 100
- Plant Injury Rating 15 DAT (Morex barley): 100
- Plant Injury Rating 15 DAT (Flax): 100
- Plant Injury Rating 15 DAT (Sunflower): 100
- Plant Injury Rating 15 DAT (Rape [2]): 100
- Plant Injury Rating 15 DAT (Era wheat): 100
- Plant Injury Rating 22 DAT (Pigweed): 90
- Plant Injury Rating 18 DAT (Rape [3]; 16 g/ha): 80
- Plant Injury Rating 18 DAT (Rape [3]; 32 g/ha): 100
- Plant Injury Rating 22 DAT (Guinea Grass [4]): 60
- Injury ratings (Broadleaf signalgrass): 100
- Plant Injury Rating 15 DAT (Annual ryegrass): 100
- Plant Injury Rating 27 DAT (Sugarcane; 8 g/ha): 10
- Plant Injury Rating 27 DAT (Sugarcane; 16 g/ha): 20
- Plant Injury Rating 27 DAT (Sugarcane; 32 g/ha): 20
- Plant Injury Rating 27 DAT (Sugarcane; 64 g/ha): 30
